Measured values reported in PMC5118716, “Structural basis of TRPA1 inhibition by HC-030031 utilizing species-specific differences” (Scientific Reports, 2016).
Positions count from the first letter of the chain named.

Columns and labels:
Test in all cases: two-electrode voltage clamp, X. laevis oocytes
Format in all cases: cell-based
fTRPA1 [1] = biological target: T1, fTRPA1 (Xenopus tropicalis, UniProt A0A8J0QD66); conditions: agonist
T1 construct: gene trpa1; full-length wild type (1144 residues); X. laevis oocytes (cRNA)
T1 sequence (A0A8J0QD66 1-1144): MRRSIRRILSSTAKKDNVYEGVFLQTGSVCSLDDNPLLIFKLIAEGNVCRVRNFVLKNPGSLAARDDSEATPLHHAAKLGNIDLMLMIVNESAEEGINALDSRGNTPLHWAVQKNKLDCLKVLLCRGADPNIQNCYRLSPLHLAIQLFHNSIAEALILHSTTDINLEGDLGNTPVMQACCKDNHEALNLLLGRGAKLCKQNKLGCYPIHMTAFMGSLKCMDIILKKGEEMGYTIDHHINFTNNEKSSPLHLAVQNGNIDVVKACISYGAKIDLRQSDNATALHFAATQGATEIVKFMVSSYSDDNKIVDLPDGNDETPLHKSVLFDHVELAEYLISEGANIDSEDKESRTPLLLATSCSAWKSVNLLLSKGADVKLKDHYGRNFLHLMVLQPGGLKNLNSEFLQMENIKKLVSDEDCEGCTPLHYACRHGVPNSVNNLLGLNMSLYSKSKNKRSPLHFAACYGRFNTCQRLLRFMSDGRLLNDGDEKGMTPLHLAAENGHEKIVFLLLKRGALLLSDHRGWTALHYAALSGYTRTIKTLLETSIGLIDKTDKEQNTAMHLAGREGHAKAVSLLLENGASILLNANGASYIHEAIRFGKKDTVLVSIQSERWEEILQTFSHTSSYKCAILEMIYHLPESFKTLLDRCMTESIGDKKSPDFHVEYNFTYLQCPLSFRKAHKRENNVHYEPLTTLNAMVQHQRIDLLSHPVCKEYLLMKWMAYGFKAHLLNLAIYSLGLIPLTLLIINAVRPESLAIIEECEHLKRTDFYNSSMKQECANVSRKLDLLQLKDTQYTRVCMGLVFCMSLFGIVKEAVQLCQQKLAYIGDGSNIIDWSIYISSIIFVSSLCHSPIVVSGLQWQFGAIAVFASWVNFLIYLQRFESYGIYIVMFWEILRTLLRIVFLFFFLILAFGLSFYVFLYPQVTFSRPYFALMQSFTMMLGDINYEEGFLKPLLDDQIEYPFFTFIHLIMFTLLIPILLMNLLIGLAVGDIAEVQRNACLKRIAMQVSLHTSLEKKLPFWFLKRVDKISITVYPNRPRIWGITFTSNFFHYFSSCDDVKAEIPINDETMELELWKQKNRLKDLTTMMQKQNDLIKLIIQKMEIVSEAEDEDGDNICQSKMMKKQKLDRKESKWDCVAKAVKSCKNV

hTRPA1 [2] = biological target: T2, hTRPA1 (Homo sapiens, UniProt O75762); conditions: agonist, non-electrophilic; pH 7.4, -60 mV
T2 construct: gene TRPA1; full-length wild type (1119 residues); X. laevis oocytes (cRNA) or HEK293T cells (pcDNA3.1)
T2 sequence (O75762 whole entry): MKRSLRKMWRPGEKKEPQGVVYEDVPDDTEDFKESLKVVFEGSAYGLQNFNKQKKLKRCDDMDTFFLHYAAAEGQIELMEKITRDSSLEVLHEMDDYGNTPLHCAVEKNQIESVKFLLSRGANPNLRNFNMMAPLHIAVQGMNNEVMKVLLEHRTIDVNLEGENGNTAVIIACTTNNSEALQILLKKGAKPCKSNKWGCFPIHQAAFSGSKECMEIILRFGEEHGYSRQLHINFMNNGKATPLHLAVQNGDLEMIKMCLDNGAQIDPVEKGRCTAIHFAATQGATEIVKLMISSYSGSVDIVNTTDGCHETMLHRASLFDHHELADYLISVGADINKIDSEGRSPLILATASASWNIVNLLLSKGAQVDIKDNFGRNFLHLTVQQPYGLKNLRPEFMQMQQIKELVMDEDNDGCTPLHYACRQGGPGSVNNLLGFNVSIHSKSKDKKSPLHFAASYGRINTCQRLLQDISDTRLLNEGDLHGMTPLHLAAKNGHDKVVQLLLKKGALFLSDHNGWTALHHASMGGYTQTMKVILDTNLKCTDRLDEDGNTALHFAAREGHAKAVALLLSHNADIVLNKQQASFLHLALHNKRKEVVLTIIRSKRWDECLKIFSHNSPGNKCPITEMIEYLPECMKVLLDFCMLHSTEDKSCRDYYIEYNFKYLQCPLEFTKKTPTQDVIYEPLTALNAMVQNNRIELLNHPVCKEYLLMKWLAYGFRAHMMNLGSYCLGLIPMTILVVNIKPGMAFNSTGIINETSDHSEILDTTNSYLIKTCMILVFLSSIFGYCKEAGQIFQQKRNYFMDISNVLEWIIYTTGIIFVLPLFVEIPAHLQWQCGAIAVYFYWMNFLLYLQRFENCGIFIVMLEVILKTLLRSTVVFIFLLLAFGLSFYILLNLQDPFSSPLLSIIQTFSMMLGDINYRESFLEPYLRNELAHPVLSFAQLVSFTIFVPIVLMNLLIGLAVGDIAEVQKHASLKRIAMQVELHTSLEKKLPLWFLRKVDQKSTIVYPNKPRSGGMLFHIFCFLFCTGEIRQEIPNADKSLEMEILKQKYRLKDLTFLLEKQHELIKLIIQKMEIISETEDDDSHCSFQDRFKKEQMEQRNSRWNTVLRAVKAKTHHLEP

fTRPA1 [3] = biological target: T3, fTRPA1 (Xenopus tropicalis, UniProt A0A8J0QD66, S880N); conditions: antagonist; vs 0.5 mM CA; pH 7.4, 1.8 mM CaCl2, -60 mV
T3 construct: gene trpa1; full-length wild type (1144 residues); X. laevis oocytes (cRNA)
T3 sequence (A0A8J0QD66 1-1144 S880N): T1 sequence (A0A8J0QD66 1-1144) with S880N

zTRPA1b = biological target: T4, zTRPA1b (Danio rerio, UniProt A0A8M1N2Z4, R860N); conditions: antagonist; vs 1 mM CA; pH 7.4, 1.8 mM CaCl2, -60 mV
T4 construct: gene trpa1b; full-length; X. laevis oocytes (cRNA)
T4 sequence (A0A8M1N2Z4 1-1120 R860N): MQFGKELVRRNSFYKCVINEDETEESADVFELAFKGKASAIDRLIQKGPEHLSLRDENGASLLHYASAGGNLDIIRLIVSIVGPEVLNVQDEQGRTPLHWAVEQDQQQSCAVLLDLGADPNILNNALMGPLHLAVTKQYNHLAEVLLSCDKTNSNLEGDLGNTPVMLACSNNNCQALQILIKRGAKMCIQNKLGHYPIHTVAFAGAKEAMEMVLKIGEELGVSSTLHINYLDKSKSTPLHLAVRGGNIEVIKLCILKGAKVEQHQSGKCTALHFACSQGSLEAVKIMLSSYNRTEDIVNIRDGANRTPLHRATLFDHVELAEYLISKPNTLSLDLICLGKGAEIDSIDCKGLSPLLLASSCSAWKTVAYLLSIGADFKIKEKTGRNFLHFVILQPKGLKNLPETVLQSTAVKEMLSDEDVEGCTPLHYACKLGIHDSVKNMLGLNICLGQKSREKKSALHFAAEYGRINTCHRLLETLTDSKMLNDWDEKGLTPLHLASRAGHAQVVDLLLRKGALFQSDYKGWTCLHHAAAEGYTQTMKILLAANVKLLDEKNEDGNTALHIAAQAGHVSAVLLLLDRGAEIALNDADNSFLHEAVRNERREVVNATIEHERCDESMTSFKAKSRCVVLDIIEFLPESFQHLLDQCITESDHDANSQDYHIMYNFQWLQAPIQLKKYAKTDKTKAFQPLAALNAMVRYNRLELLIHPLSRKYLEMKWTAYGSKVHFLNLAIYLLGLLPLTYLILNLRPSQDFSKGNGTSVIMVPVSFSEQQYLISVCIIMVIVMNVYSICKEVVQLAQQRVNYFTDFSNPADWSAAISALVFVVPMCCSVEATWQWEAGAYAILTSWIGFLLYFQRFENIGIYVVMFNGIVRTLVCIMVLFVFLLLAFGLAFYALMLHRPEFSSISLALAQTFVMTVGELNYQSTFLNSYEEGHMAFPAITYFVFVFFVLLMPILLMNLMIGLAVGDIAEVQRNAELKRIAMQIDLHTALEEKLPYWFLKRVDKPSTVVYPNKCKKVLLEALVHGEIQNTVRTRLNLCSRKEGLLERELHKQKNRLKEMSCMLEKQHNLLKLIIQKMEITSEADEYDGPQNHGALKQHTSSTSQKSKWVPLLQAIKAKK

hTRPA1 [4] = biological target: T5, hTRPA1 (Homo sapiens, UniProt O75762, N855S); conditions: antagonist; vs 0.3 mM CA; pH 7.4, 1.8 mM CaCl2, -60 mV
T5 construct: gene TRPA1; full-length wild type (1119 residues); X. laevis oocytes (cRNA) or HEK293T cells (pcDNA3.1)
T5 sequence (O75762 whole entry N855S): as the sequence (O75762 whole entry) above, with N855S counted along it

Cc1ccc(C(C)C)cc1O [carvacrol]
two-electrode voltage clamp, X. laevis oocytes (fTRPA1 [1]; non-electrophilic, pH 7.4, -60 mV): hTRPA1 and fTRPA1 currents activated by the non-electrophilic compound carvacrol | two-electrode voltage clamp, X. laevis oocytes (hTRPA1 [2]): hTRPA1 and fTRPA1 currents activated by the non-electrophilic compound carvacrol

O=CC=Cc1ccccc1 [CA, cinnamaldehyde]
two-electrode voltage clamp, X. laevis oocytes (fTRPA1 [1]; 0.5 mM, covalent, pH 7.4, 1.8 mM CaCl2, -60 mV): TRPA1-mediated currents were activated by CA with approximately similar amplitude

CC(C)c1ccc(NC(=O)Cn2cnc3c2c(=O)n(C)c(=O)n3C)cc1 [HC, HC-030031]
inhibition at 50 μM (fTRPA1 [3]): HC reduced the CA-evoked currents in the second application in fTRPA1-S880N | inhibition at 50 μM (zTRPA1b): significant reduction in current amplitudes in zTRPA1-R860N although wt-zTRPA1b showed no inhibition | inhibition at 50 μM (hTRPA1 [4]): hTRPA1-N855S showed significantly less sensitivity to HC than wt-hTRPA1 at all concentrations examined
